From patent US5719287A, “Intermediates for inhibitors of HIV protease and method of preparation thereof” (Eli Lilly and Company, priority 1995, dated 1998)
Read-outs that look alike come from different tables or passages of the source.

Biological target: T1, HIV-1 protease (Human immunodeficiency virus type 1 group M subtype B, UniProt P04585)
T1 construct: Purified HIV-1 protease was obtained as described below; made in house; host or cells: E. coli K12 L507/pHP10D (NRRL B-18560)
Assay: biochemical
Details: for IC50: read-out: Fluorescence Assay IC50 (converted)
Protocol: N^α -Biotin-[…]Ne-FITC)-OH
The purified peptide was labeled as follows with a fluorescent marker at the C-terminal end for use in the assay. N^α -Biotin-Gly-Ser-Gln-Asn-Tyr-Pro-lle-Val-Gly-Lys-OH (1.206 g, 0.936 mmoles) was dissolved in 100 mL of 0.1M sodium borate, pH 9.5 with stirring. Then, 3 g of fluorescein isothiocyanate (7.7 mmol) was dissolved in 15 mL dimethyl sulfoxide and the solution added to the reaction in 10 equal portions over the course of a two hour period. The reaction was allowed to proceed for a further one hour after the final addition had been made. The pH of the solution was adjusted to 3 with 5N HCl. A precipitate formed which was removed from the reaction by centrifugation.
Fluorescence HIV-1 Protease Inhibitor Assay Procedure.
To each well of a round bottom, 96-well plate is added 20 μl of the Enzyme Solution followed by 10 μl of the compound to be evaluated in 20% aqueous DMSO. Purified HIV-1 protease was obtained as described below. The solution is incubated for one hour at room temperature and then 20 μl of a solution of the substrate N^α -Biotin-[…]N^e -FITC)-OH, in MES-ALB buffer (1.5 μl/ml) is added to each well. The solutions are incubated for 16 hours at room temperature and thereafter to each well is added 150 μl of MES-ALB buffer.
To each well of a 96-well Pandex plate is added 25 μl of the Avidin Coated Beads Solution. Next, 25 μl of the diluted incubation solutions, described above, are added to each well of the Pandex plate. The solutions are mixed well and the plates are loaded into a Pandex® machine, washed, evacuated and read. Sample detection was performed by excitation at 485 nm and reading the resulting epifluorescence at 535 nm.
A culture of E. coli K12 L507/pHP10D was grown to mid-log phase at 32° C. in LB media containing 12.5 μg/ml tetracycline. The cultivation temperature was quickly elevated to 40° C. to induce gene expression, and the cells were allowed to grow for 2.5 hours at this temperature before the culture was quickly chilled on ice. The cells were centrifuged and the cell pellet was resuspended in 20 ml 50 mmol MES buffer (pH 6.0) containing 1 mmol EDTA, 1 mmol DTT, 1 mmol PMSF, and 10% glycerol (Buffer A). Cells were lysed by sonication using a Fischer Model 300 Dismembrator and a microtip probe. […] Enzymatic activity was measured by HPLC using the synthetic peptide SQNYPIV as described in Margolin et al., Biochem. Biophys. Res. Commun., 167, 554-560 (1990); the production of the pl peptide (SQNY) was measured.
Active fractions were pooled, made 1.2M in ammonium sulfate, and applied to a hexyl agarose column (2.0×18 cm) equilibrated in Buffer A containing 1.2M ammonium sulfate. The sample, in 125 ml (1.85 mg/ml), was loaded at a flow rate of 1 ml/min at 4° C. […] The column was then washed isocratically in Buffer A for 120 min. Active fractions were pooled, concentrated to 10 ml using an Amicon stirred cell with a YM-10 membrane, and applied at 1 ml/min to a MonoS cation exchange column (1.0×10 cm) equilibrated in Buffer A. After washing isocratically for 30 min, protease was eluted using a linear gradient of 0-0.45M NaCl in Buffer A over 40 min followed by an isocratic wash with Buffer A containing 0.45M NaCl over 30 min. Chromatography was performed at 25° C.
Pooled active fractions were concentrated to 200 ul using an Amicon stirred cell and a YM-10 membrane, and the protease was then applied to a Superose 6 size exclusion column equilibrated in Buffer A containing 0.1M NaCl. The column was washed isocratically in this buffer at a flow rate of 0.5 ml/min.

[1] = purified HIV-1 protease, MES-ALB buffer pH 5.5, 1 h preincubation, 16 h with substrate, room temperature, IC50 values for Examples 2-70 are standardized relative to Ex 1

Compound | IC50 | also measured
CC(C)(C)NC(=O)c1ccccc1C[C@@H](O)[C@H](Cc1ccccc1)NC(=O)[C@H](CC(=O)NNc1cccnc1)NC(=O)c1ccc2ccccc2n1 [Example 50, [1S-(1R*, 4R*, 5S*)]-N-(1-(2-(N-(N-3-pyridyl)amino)amino)-2-oxoethyl)-2-oxo-3-aza-4-phenylmethyl-5-hydroxy-6-(2-(1-t-butylamino-1-oxomethyl)phenyl)hexyl)-2-quinolinyl carboxamide] | – | IC50 [1]: 0.228 nM
CC(C)(C)NC(=O)c1ccccc1C[C@@H](O)[C@H](CC1CCCCC1)NC(=O)[C@H](CC(N)=O)NC(=O)c1ccc2ccccc2n1 [Example 51, [1S-(1R*, 4R*. 5S*)]-N-(1-(2-amino-2-oxoethyl)-2-oxo-3-aza-4-cyclohexylmethyl-5-hydroxy-6-(2-(1-t-butylamino-1-oxomethyl)phenyl)hexyl)-2-quinolinyl carboxamide] | 14.9 nM | –
CC(C)(C)NC(=O)c1ccccc1C[C@@H](O)[C@H](Cc1ccccc1)NC(=O)[C@H](CC(N)=O)NC(=O)c1ccc2cccc(F)c2n1 [Example 52, [1S-(1R*, 4R*, 5S*)]-N-(1-(2-amino-2-oxoethyl)-2-oxo-3-aza-4-phenylmethyl-5-hydroxy-6-(2-(1-t-butylamino-1-oxomethyl)phenyl)hexyl)-8-fluoroquinolin-2-yl carboxamide] | 4.62 nM | –
CC(C)(C)NC(=O)c1ccccc1C[C@@H](O)[C@H](Cc1ccccc1)NC(=O)[C@H](CC(N)=O)NC(=O)c1cc(Cl)c2ccccc2n1 [Example 53, [1S-(1R*, 4R*, 5S*)]-N-(1-(2-amino-2-oxoethyl)-2-oxo-3-aza-4-phenylmethyl-5-hydroxy-6-(2-(1-t-butylamino-1-oxomethyl)phenyl)hexyl)-4-chloroquinolin-2-yl carboxamide] | 1.2 nM | –
CC(C)(C)NC(=O)c1ccccc1C[C@@H](O)[C@H](Cc1ccccc1)NC(=O)[C@H](CCC(N)=O)NC(=O)c1ccc2ccccc2n1 [Example 54, [1S-(1R*, 4R*, 5S*)]-N-(1-(3-amino-3-oxopropyl)-2-oxo-3-aza-4-phenylmethyl-5-hydroxy-6-(2-(1-t-butylamino-1-oxomethyl)phenyl)hexyl)-2-quinolinyl carboxamide] | 78.6 nM | –
CC(C)(C)NC(=O)c1ccccc1C[C@@H](O)[C@H](Cc1ccccc1)NC(=O)[C@H](CC(N)=O)NC(=O)c1ccc2cc(Cl)ccc2n1 [Example 55, [1S-(1R*, 4R*, 5S*)]-N-(1-(2-amino-2-oxoethyl)-2-oxo-3-aza-4-phenylmethyl-5-hydroxy-6-(2-(1-t-butylamino-1-oxomethyl)phenyl)hexyl)-6-chloroquinolin-2-yl carboxamide] | 1.26 nM | –
CC(C)(C)NC(=O)c1ccccc1C[C@@H](O)[C@H](Cc1ccccc1)NC(=O)[C@H](CCC(N)=O)NC(=O)c1ccc2ccccc2c1 [Example 56, [1S-(1R*, 4R*, 5S*)]-N-(1-(3-amino-3-oxopropyl) -2-oxo-3-aza-4-phenylmethyl-5-hydroxy-6-(2-(1-t-butylamino-1-oxomethyl)phenyl)hexyl)-2-naphthyl carboxamide] | 38.9 nM | –
CC(C)(C)NC(=O)c1ccccc1C[C@@H](O)[C@H](Cc1ccccc1)NC(=O)[C@H](CC(N)=O)NC(=O)NCc1ccccc1 [Example 57, [2R-(2R*, 3S*, 6S*)]-N-t-butyl-2-(2-hydroxy-3-phenylmethyl-4-aza-5-oxo-6-(2-amino-2-oxoethyl)-7-aza-8-oxo-8-(N-benzylamino)octyl)benzamide] | 16.5 nM | –
CC(C)(C)NC(=O)c1ccccc1C[C@@H](O)[C@H](Cc1ccccc1)NC(=O)[C@H](CC(N)=O)NC(=O)NCc1cccc2ccccc12 [Example 58, [2R-(2R*, 3S*, 6S*)]-N-t-butyl-2-(2-hydroxy-3-phenylmethyl-4-aza-5-oxo-6-(2-amino-2-oxoethyl)-7-aza-8-oxo-8-(N-naphth-1-ylmethylamino)octyl)benzamide] | 2.82 nM | –
CC(C)(C)NC(=O)c1ccccc1C[C@@H](O)[C@H](Cc1ccccc1)NC(=O)[C@H](CC(N)=O)NC(=O)c1ccc2cc(F)cc(F)c2n1 [Example 59, [1S-(1R*, 4R*, 5S*)]-N-(1-(2-amino-2-oxoethyl)-2-oxo-3-aza-4-phenylmethyl-5-hydroxy-6-(2-(1-t-butylamino-1-oxomethyl)phenyl)hexyl)-6,8-difluoroquinolin-2-yl carboxamide] | – | IC50 [1]: 11.2 nM
CC(C)(C)NC(=O)c1ccccc1CC(O)C(Cc1ccccc1)NC(=O)C(CC(N)=O)NC(=O)c1cccc2cccnc12 (stereo not drawn) [Example 61, [1S-(1R*, 4R*, 5S*)]-N-(1-(2-amino-2-oxoethyl)-2-oxo-3-aza-4-phenylmethyl-5-hydroxy-6-(2-(1-t-butylamino-1-oxomethyl)phenyl)hexyl)-8-quinolinyl carboxamide] | – | Fluorescence Assay IC50 [1]: 1.3 ng/mL
CC(C)(C)NC(=O)c1ccccc1CC(O)C(Cc1ccccc1)NC(=O)C(CC(N)=O)NC(=O)c1cc(C(C)(C)C)c2ccccc2n1 (stereo not drawn) [Example 66, [1S-(1R*, 4R*, 5S*)]-N-(1-(3-amino-2-oxoethyl)-2-oxo-3-aza-4-phenylmethyl-5-hydroxy-6-(2-(1-t-butylamino-1-oxomethyl)phenyl)hexyl)-4-(2,2-dimethylethyl)quinolin-2-yl carboxamide] | – | Fluorescence Assay IC50 [1]: 1.5 ng/mL

The next lines start with results.

IC50 | Compound | also measured
5.9 nM | CC(C)(C)NC(=O)c1ccccc1C[C@@H](O)[C@H](Cc1ccccc1)NC(=O)[C@H](CC(N)=O)NC(=O)c1ccc2cccc(Cl)c2n1 [Example 62, [1S-(1R*, 4R*, 5S*)]-N-(1-(2-amino-2-oxoethyl)-2-oxo-3-aza-4-phenylmethyl-5-hydroxy-6-(2-(1-t-butylamino-1-oxomethyl)phenyl)hexyl)-8-chloroquinolin-2-yl carboxamide] | –
0.784 nM | Cc1cc(C)c2ccc(C(=O)N[C@@H](CC(N)=O)C(=O)N[C@@H](Cc3ccccc3)[C@H](O)Cc3ccccc3C(=O)NC(C)(C)C)nc2c1 [Example 63, [1S-(1R*, 4R*, 5S*)]-N-(1-(2-amino-2-oxoethyl)-2-oxo-3-aza-4-phenylmethyl-5-hydroxy-6-(2-(1-t-butylamino-1-oxomethyl)phenyl)hexyl)-5,7-dimethylquinolin-2-yl carboxamide] | –
0.782 nM | COc1cc(C(=O)N[C@@H](CC(N)=O)C(=O)N[C@@H](Cc2ccccc2)[C@H](O)Cc2ccccc2C(=O)NC(C)(C)C)nc2ccccc12 [Example 64, [1S-(1R*, 4R*, 5S*) ]-N-(1-(2-amino-2-oxoethyl)-2-oxo-3-aza-4-phenylmethyl-5-hydroxy-6-(2-(1-t-butylamino-1-oxomethyl)phenyl)hexyl)-4-methoxyquinolin-2-yl carboxamide] | –
1.92 nM | Cc1ccc(C(=O)NC(C)(C)C)c(C[C@@H](O)[C@H](Cc2ccccc2)NC(=O)[C@H](CC(N)=O)NC(=O)c2ccc3ccccc3n2)c1 [Example 65, [1S-(1R*, 4R*, 5S*)]-N-(1-(2-amino-2-oxoethyl)-2-oxo-3-aza-4-phenylmethyl-5-hydroxy-6-(2-(1-t-butylamino-1-oxomethyl)-5-methylphenyl)hexyl)-2-quinolinyl carboxamide] | –
7.73 nM | Cc1ccc(C[C@@H](O)[C@H](Cc2ccccc2)NC(=O)[C@H](Cc2c[nH]cn2)NC(=O)c2ccc3ccccc3n2)c(C(=O)NC(C)(C)C)c1 [Example 67, [1S-(1R*, 4R*, 5S*)]-N-(1-(4-imidazolylmethyl)-2-oxo-3-aza-4-phenylmethyl-5-hydroxy-6-(2-(1-t-butylamino-1-oxomethyl)-4-methylphenyl)-4-hexyl)-2-quinolinyl carboxamide] | –
